Measurements as given in patent US20240024409A1, “N-f-MLF DERIVATIVES THAT INHIBIT FORMYL PEPTIDE RECEPTORS FOR THE TREATMENT OF DISEASE” (University of South Alabama, priority 2022, published 2024).

Tests used:
[1] = system: circulating IgE levels; experiment: IgE production in vivo (serum IgE by ELISA); parameters: species or system STAT3^mut mice; settings: 2.5 mg/kg once per week for 3 weeks
Experimental: Groups (n=4-6/group) were treated with fMLYF (2.5 mg/kg) or vehicle once per week for 3 weeks. Serum was collected to measure effects of peptide treatment on circulating IgE levels via ELISA (FIG. 1 and FIG. 5).

[2] = system: Primary STAT3^mut bone marrow-derived mast cells (BMMC); experiment: BMMC degranulation (LAMP-1 on the plasma membrane by flow cytometry); format: cell-based, mice; settings: DNP-specific IgE then DNP; peptide added prior to DNP; varying concentrations
Experimental: Primary bone marrow-derived mast cells (BMMC) were cultured from STAT3^mut mice in RPMI-1640 Medium (Thermo Fisher Scientific) containing 10% fetal bovine serum (FBS), interleukin-3 (IL-3) and stem cell factor (SCF). To induce degranulation, BMMC were incubated with dinitrophenyl (DNP)-specific IgE followed by addition of DNP to crosslink IgE. To test effects of fMLFF and fMLYF, different concentrations were administered prior to the addition of DNP. Degranulation was measured by the amount of lysosomal-associated membrane protein 1 (LAMP-1) on the plasma membrane by flow cytometry.
Primary STAT3^mut BMMC were treated with varying concentrations of fMLFF and fMLYF (FIG. 3A and FIG. 3B). Data shown in FIG. 3B were summarized from 3 individual experiments; bars indicate means+SEM; **p<0.001; ****p<0.00001, 2-way ANOVA with Tukey's multiple comparison. Assays were performed independently with fMLFF and fMLYF; data shown are cumulative for experiments using fMLFF and fMLYF individually.

Substance: fMLFF
- IgE production in vivo [1]: attenuated
- mast cell degranulation in vitro [2]: attenuated
